# B1: 14-3-3εΔC (aa 1-232) (domain or fragment, human, UniProt P62258 1-232, looked up)
# chain: MDDREDLVYQAKLAEQAERYDEMVESMKKVAGMDVELTVEERNLLSVAYKNVIGARRASWRIISSIEQKEENKGGEDKLKMIREYRQMVETELKLICCDILDVLDKHLIPAANTGESKVFYYKMKGDYHRYLAEFATGNDRKEAAENSLVAYKAASDIAMTELPPTHPIRLGLALNFSVFYYEILNSPDRACRLAKAAFDDAIAELDTLSEESYKDSTLIMQLLRDNLTLWT
# Experiments:
# [1] = test system: 14-3-3ε; settings: pull-down and mass spectrometry; cited from earlier work
# [2] = test system: 14-3-3ε and FOXO3a interaction; settings: cells expressing the 9J10 probe; cited from earlier work
# [3] = molecular target: the molecule itself; assay: crystal structure
Molecule,"14-3-3 proteins interacting with probe (pull-down, MS) [1]",Interaction between 14-3-3ε and FOXO3a in cells expressing the probe [2],binding result [3]
LNTRPGRRRNpSN [9J10],14-3-3ε is one among the abundant 14-3-3 proteins interacting with 9J10,sharp reduction in the interaction between 14-3-3ε and FOXO3a,
B1,,,binds

# Source: publication PMC9301721 (ACS Omega, 2022)
